In US9422335B2, “Modified toll-like receptor 2 (TLR2) ligands as inhibitors of neutrophil recruitment” (priority 2011, dated 2016):
“Also recorded” adds a separate entry of the source.

Legend:
[1] = tested on: neutrophil emigration into the cremaster tissue; assay: Intravital microscopy of cremaster muscle after intrascrotal injection; type: in vivo, mice; details: for inhibitory properties toward LPS-induced neutrophil emigration: LPS 10 ng/g plus ligand 5 ng/g, 4.5 hours; for neutrophil recruitment induced by the ligand itself: wild-type mice, intrascrotal injection, 4.5 hr; for effect of antagonist pretreatment on LTA and GML inhibition of TNFα-induced neutrophil recruitment: 0.5 μg, 1.5 hr pre-treatment
Method: Intravital microscopy was performed on male mice, anaesthetized with an intraperitoneal injection of a 10 mg/kg xylazine (Bayer) and 200 mg/kg ketamine hydrochloride (Rogar/STB). The left jugular vein was cannulated to administer additional anaesthetic when necessary. An incision in the scrotal skin exposed the left cremaster muscle, which was then carefully dissected free of the associated fascia. The cremaster muscle was cut longitudinally with a cautery pen. The testicle and the epididymis were then separated from the underlying muscle and were moved into the abdominal cavity. The muscle was held flat on an optically clear viewing pedestal and was secured along the edges with 4-0 suture. The exposed tissue was superfused with 37° C.-warmed bicarbonate-buffered saline (pH 7.4). An upright microscope (Mikron; Carl Zeiss) was used to examine the cremasteric microcirculation and a video camera (XR/MEGA10-AM or XR/MEGA10 Panasonic) and DVD recorder were used to capture images. Three to five cremasteric venules (25 to 40 μm in diameter) were analysed during playback analysis. A leukocyte was considered to be adherent if it remained stationary for at least 30 seconds, and total leukocyte adhesion was quantified as the number of adherent cells within a 100-μm length of venule. Leukocyte emigration was defined as the number of cells in the extravascular space within the field of view adjacent to the observed venule.

[2] = tested on: MIP2-induced neutrophil emigration; assay: Intravital microscopy of exteriorized cremaster superfused with MIP2; type: in vivo, mice; details: 0.5 μg, 1.5 hr pre-treatment; superfusion 60 min
Method: Intravital microscopy was performed on male mice, anaesthetized with an intraperitoneal injection of a 10 mg/kg xylazine (Bayer) and 200 mg/kg ketamine hydrochloride (Rogar/STB). The left jugular vein was cannulated to administer additional anaesthetic when necessary. An incision in the scrotal skin exposed the left cremaster muscle, which was then carefully dissected free of the associated fascia. The cremaster muscle was cut longitudinally with a cautery pen. The testicle and the epididymis were then separated from the underlying muscle and were moved into the abdominal cavity. The muscle was held flat on an optically clear viewing pedestal and was secured along the edges with 4-0 suture. The exposed tissue was superfused with 37° C.-warmed bicarbonate-buffered saline (pH 7.4). An upright microscope (Mikron; Carl Zeiss) was used to examine the cremasteric microcirculation and a video camera (XR/MEGA10-AM or XR/MEGA10 Panasonic) and DVD recorder were used to capture images. Three to five cremasteric venules (25 to 40 μm in diameter) were analysed during playback analysis. A leukocyte was considered to be adherent if it remained stationary for at least 30 seconds, and total leukocyte adhesion was quantified as the number of adherent cells within a 100-μm length of venule. […]

[3] = severe sepsis; decreased from about 31%; cited from earlier work
[4] = tested on: bone marrow-derived macrophages; assay: Internalization of FITC-FSL1/GML; type: cell-based, mice
Method: Bone marrow-derived macrophages were isolated from wild-type and TLR2−/− mice and cultured on glass coverslips. The cells were incubated on ice for 10 min in the presence of 10 μg/mL FITC-FSL1 or FITC-GML to allow ligands binding and then returned to 37° C. for 60 min. Cells were then fixed for 10 minutes in 4.5% paraformaldehyde and stained for the golgi marker Giantin (1:250, Abcam), and imaged using confocal microscopy.

| Compound | inhibitory properties toward LPS-induced neutrophil emigration [1] | neutrophil recruitment induced by the ligand itself [1] | effect of antagonist pretreatment on LTA and GML inhibition of TNFα-induced neutrophil recruitment [1] | effect of antagonist pretreatment on LTA and GML inhibition of MIP2-induced neutrophil recruitment [2] | also measured |
| --- | --- | --- | --- | --- | --- |
| Pam3CSK4 | did not exhibit any inhibitory properties | pro-inflammatory; also recorded: causes significant neutrophil recruitment into the cremaster tissue | – | – | – |
| Pam2CSK4 | did not exhibit any inhibitory properties | pro-inflammatory | – | – | – |
| O=C(Nc1ccncc1)c1cc([N+](=O)[O-])ccc1Cl [T0070907] | – | – | abrogated the inhibitory effect of both LTA and GML | abrogated the inhibitory effect of both LTA and GML | – |
| O=C(Nc1ccccc1)c1cc([N+](=O)[O-])ccc1Cl [GW9662] | – | – | abrogated the inhibitory effect of both LTA and GML | abrogated the inhibitory effect of both LTA and GML | – |
| drotrecogin alfa | – | – | – | – | mortality [3]: about 25% |
| FSL1 | – | – | – | – | internalization / localization of FITC-labelled ligand ([4]; in the absence of TLR2): substantially inhibited with regard to internalization; localization of internalized FITC-labelled ligand ([4]; wild-type macrophages, 60 min, Giantin stain): much smaller vesicles, which did not co-localize with Giantin |
